Results published in US9126938B2, “Phosphatidylcholine transfer protein inhibitors” (The Brigham and Women's Hospital, Inc., priority 2009, dated 2015).

Experiments:
PC-TP = target: T1, PC-TP (Homo sapiens, UniProt Q9UKL6); assay: PC-TP inhibition assay (Wagle et al. method); type: biochemical; settings: for IC50: Table 1, concentration value; for Activity (PC-TP), result in words: compound fluorescence in the fluorescence-based assay
T1 sequence (Q9UKL6 1-214): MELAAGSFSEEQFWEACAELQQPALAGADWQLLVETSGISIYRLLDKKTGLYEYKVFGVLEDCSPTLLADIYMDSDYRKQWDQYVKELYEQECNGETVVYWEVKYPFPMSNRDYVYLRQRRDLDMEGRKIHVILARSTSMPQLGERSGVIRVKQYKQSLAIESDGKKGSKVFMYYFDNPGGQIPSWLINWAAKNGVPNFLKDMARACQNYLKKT
Experimental: (§1) The compounds in Table 1 and 2 were assayed for their ability to inhibit PC-TP and StarD10, respectively, using a known assay method (see Wagle et al., 2008. Anal. Biochem. 383:85-92, which is incorporated herein by reference in its entirety). Further, certain compounds were also tested for their ability to inhibit StarD7 (see Table 2).

StarD10 = target: T2, StarD10 (Homo sapiens, UniProt Q9Y365); assay: StarD10 inhibition assay; type: biochemical
T2 sequence (Q9Y365 1-291): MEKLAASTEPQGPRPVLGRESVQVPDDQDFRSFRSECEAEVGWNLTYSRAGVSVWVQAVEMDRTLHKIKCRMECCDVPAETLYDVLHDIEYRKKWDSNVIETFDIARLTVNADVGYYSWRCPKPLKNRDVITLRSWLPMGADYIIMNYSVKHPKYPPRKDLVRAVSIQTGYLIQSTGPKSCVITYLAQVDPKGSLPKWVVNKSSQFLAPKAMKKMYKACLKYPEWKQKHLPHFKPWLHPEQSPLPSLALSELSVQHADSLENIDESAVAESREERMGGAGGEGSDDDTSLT
Experimental: as §1

StarD7 = target: T3, StarD7 (Homo sapiens, UniProt Q9NQZ5); assay: StarD7 inhibition assay; type: biochemical
T3 sequence (Q9NQZ5 78-370): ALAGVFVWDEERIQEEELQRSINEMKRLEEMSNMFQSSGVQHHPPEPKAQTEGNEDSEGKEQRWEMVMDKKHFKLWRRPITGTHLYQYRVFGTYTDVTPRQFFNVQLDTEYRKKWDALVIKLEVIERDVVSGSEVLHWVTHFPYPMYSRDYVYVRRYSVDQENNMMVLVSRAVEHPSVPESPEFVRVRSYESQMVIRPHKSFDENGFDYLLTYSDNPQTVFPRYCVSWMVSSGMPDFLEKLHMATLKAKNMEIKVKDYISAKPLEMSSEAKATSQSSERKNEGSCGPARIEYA
Experimental: as §1

[1] = tested on: insulin signaling pathway in cultured primary human hepatocytes; assay: Activation of insulin signaling pathway in primary human hepatocytes (immunoblot); type: cell-based; settings: serum starved hepatocytes, 60 minute exposure, doses of 0.05 and 0.10 μM, no insulin
Experimental: Cultured primary human hepatocytes (commercially obtained) were serum starved overnight followed by 60 minute exposure to A) Compound 4 or B) Compound 16 at the indicated concentrations. Inhibitors were dissolved in DMSO. Negative controls included Control (no additions) and DMSO alone. The positive control included DMSO plus insulin (50 nM) for 30 minutes. Cells were harvested and lysates were subjected to immunoblot analyses using antibodies, as indicated.

SMILES | IC50 (PC-TP) | also measured
Cc1cc(C)nc(NS(=O)(=O)c2ccc(NC(=S)NC(=O)c3ccc(Cl)cc3Cl)cc2)n1 [Compound 1, 2,4-dichloro-N-(4-(N-(4,6-dimethyl-pyrimidin-2-yl)sulfamoyl)phenylcarbamothioyl) benzamide] | 3.2 µM | –
Cc1cc(C)nc(NS(=O)(=O)c2ccc(NC(=S)NC(=O)c3ccc(F)cc3)cc2)n1 [Compound 2, N-(4-(N-(4,6-dimethylpyrimidin-2-yl)sulfamoyl)phenylcarbamothioyl)-4-fluorobenzamide] | – | inhibition at 100 µM (PC-TP): 55%
Cc1cc(C)nc(NS(=O)(=O)c2ccc(NC(=S)NC(=O)c3ccccc3)cc2)n1 [Compound 3, N-(4-(N-(4,6-dimethylpyrimidin-2-yl)sulfamoyl)phenylcarbamothioyl) benzamide] | – | inhibition at 100 µM (PC-TP): 45%
Cc1cc(C)nc(NS(=O)(=O)c2ccc(NC(=O)NC(=O)c3ccc(Cl)cc3)cc2)n1 [Compound 6, 4-chloro-N-(4-(N-(4,6-dimethylpyrimidin-2-yl)sulfamoyl)phenylcarbamoyl) benzamide] | 26 µM | –
Cc1cc(C)nc(NS(=O)(=O)c2ccc(NC(=O)NC(=O)c3ccc(Cl)cc3Cl)cc2)c1 [Compound 7, 2,4-dichloro-N-(4-(N-(4,6-dimethylpyridin-2-yl)sulfamoyl)phenylcarbamoyl) benzamide] | 5 µM | –
Cc1cc(C)nc(NS(=O)(=O)c2ccc(N(C)C(=O)NC(=O)c3ccc(Cl)cc3Cl)cc2)n1 [Compound 11, 2,4-dichloro-N-((4-(N-(4,6-dimethylpyrimidin-2-yl)sulfamoyl)phenyl)(methyl)carbamoyl)benzamide] | > 50 µM | –
Cc1cc(C)nc(N(C)S(=O)(=O)c2ccc(NC(=O)NC(=O)c3ccc(Cl)cc3Cl)cc2)n1 [Compound 12, 2,4-dichloro-N-(4-(N-(4,6-dimethylpyrimidin-2-yl)-N-methylsulfamoyl)phenylcarbamoyl) benzamide] | 2.3 µM | IC50 (StarD10): 11 µM
Cc1cc(NS(=O)(=O)c2ccc(NC(=O)NC(=O)c3ccc(Cl)cc3Cl)cc2)nc(C)n1 [Compound 13, 2,4-dichloro-N-(4-(N-(2,6-dimethylpyrimidin-4-yl)sulfamoyl)phenylcarbamoyl) benzamide] | 2.3 µM | IC50 (StarD10): 20 µM
O=C(Nc1cc(Cl)cc(Cl)c1)C(Sc1cccc[n+]1[O-])c1ccccc1 (stereo not drawn) [Compound 16, 2-(2-(3,5-dichlorophenylamino)-2-oxo-1-phenylethylthio)pyridine 1-oxide] | 3.6 µM | IC50 (StarD10): 20 µM; IC50 (StarD7): 66 µM; Activation of insulin signaling [1]: activated insulin signaling
COc1ccc(NC(=O)C(Sc2cccc[n+]2[O-])c2ccccc2)cc1Cl (stereo not drawn) [Compound 17, 2-(2-(3-chloro-4-methoxyphenylamino)-2-oxo-1-phenylethylthio)pyridine 1-oxide] | 20 µM | –
O=C(Nc1cccc(C(F)(F)F)c1)C(Sc1cccc[n+]1[O-])c1ccccc1 (stereo not drawn) [Compound 19, 2-(2-oxo-1-phenyl-2-(3-(trifluoromethyl)phenylamino)ethylthio)pyridine 1-oxide] | 11 µM | –
O=C(Nc1cc(Cl)cc(Cl)c1)C(Sc1cc2ccccc2c[n+]1[O-])c1ccccc1 (stereo not drawn) [Compound 24, 3-(2-(3,5-dichlorophenylamino)-2-oxo-1-phenylethylthio)isoquinoline 2-oxide] | – | inhibition at 30 µM (PC-TP; at 30 μM): 25%
COc1ccc(C(Sc2cccc[n+]2[O-])C(=O)Nc2cc(Cl)cc(Cl)c2)cc1 (stereo not drawn) [Compound 25, 2-(2-(3,5-dichlorophenylamino)-1-(4-methoxyphenyl)-2-oxoethylthio)pyridine 1-oxide] | – | inhibition at 50 µM (PC-TP): 30%
O=C(Nc1cc(Cl)cc(Cl)c1)C(Sc1cccc[n+]1[O-])c1ccc2ccccc2c1 (stereo not drawn) [Compound 26, 2-(2-(3,5-dichlorophenylamino)-1-(naphthalen-2-yl)-2-oxoethylthio)pyridine 1-oxide] | – | inhibition at 50 µM (PC-TP): 20%
O=C(Nc1ccc(Cl)cc1C(F)(F)F)C(Sc1cccc[n+]1[O-])c1ccccc1 (stereo not drawn) [Compound 28, 2-(2-(4-chloro-2-(trifluoromethyl)phenylamino)-2-oxo-1-phenylethylthio)pyridine 1-oxide] | ~50 µM | –
CCN(CC)CCN(C(=O)Nc1ccc(S(=O)(=O)Nc2nc(C)cc(C)n2)cc1)C(=O)c1ccc(Cl)cc1Cl [Compound 29, 2,4-dichloro-N-(2-(diethylamino)ethyl)-N-((4-(N-(4,6-dimethylpyrimidin-2-yl)sulfamoyl)phenyl)carbamoyl)benzamide] | – | Activity (PC-TP), result in words (PC-TP): High fluoroescense
CCN(CC)CCN(c1nc(C)cc(C)n1)S(=O)(=O)c1ccc(NC(=O)NC(=O)c2ccc(Cl)cc2Cl)cc1 [Compound 30, 2,4-dichloro-N-((4-(N-(2-(diethylamino)ethyl)-N-(4,6-dimethylpyrimidin-2-yl)sulfamoyl)phenyl)carbamoyl)benzamide] | – | Activity (PC-TP), result in words (PC-TP): High fluorescense
CCOc1ccccc1NC(=O)C(Sc1cccc[n+]1[O-])c1ccccc1 (stereo not drawn) [Compound 32, 2-(2-(2-ethoxyphenylamino)-2-oxo-1-phenylethylthio)pyridine 1-oxide] | > 100 µM | –
COc1ccccc1NC(=O)C(Sc1cccc[n+]1[O-])c1ccccc1 (stereo not drawn) [Compound 34, 2-(2-(2-methoxyphenylamino)-2-oxo-1-phenylethylthio)pyridine 1-oxide] | 4 µM | IC50 (StarD10): 15 µM

Continued, in another order:

IC50 (PC-TP) | SMILES | also measured
30 µM | Cc1cc(C)nc(NS(=O)(=O)c2ccc(NC(=O)NC(=O)c3ccccc3Cl)cc2)n1 [Compound 5, 2-chloro-N-(4-(N-(4,6-dimethylpyrimidin-2-yl)sulfamoyl)phenylcarbamoyl) benzamide] | –
3.2 µM | Cc1cc(C)nc(NS(=O)(=O)c2ccc(NC(=O)NC(=O)c3cccc(Cl)c3Cl)cc2)n1 [Compound 9, 2,3-dichloro-N-(4-(N-(4,6-dimethylpyrimidin-2-yl)sulfamoyl)phenylcarbamoyl) benzamide] | IC50 (StarD10): 39 µM
30 µM | Cc1cc(C)nc(NS(=O)(=O)c2ccc(NC(=O)NC(=O)c3ccc(Cl)c(Cl)c3)cc2)n1 [Compound 10, 3,4-dichloro-N-(4-(N-(4,6-dimethylpyrimidin-2-yl)sulfamoyl)phenyl-carbamoyl)benzamide] | –
20 µM | Cc1cc(C)cc(NS(=O)(=O)c2ccc(NC(=O)NC(=O)c3ccc(Cl)cc3Cl)cc2)c1 [Compound 14] | –
8 µM | Cc1cc(C)nc(NS(=O)(=O)c2ccc(NC(=O)N(C)C(=O)c3ccc(Cl)cc3Cl)cc2)n1 [Compound 15, 2,4-dichloro-N-(4-(N-(4,6-dimethylpyrimidin-2-yl)sulfamoyl)phenylcarbamoyl)-N-methylbenzamide] | IC50 (StarD10): 17 µM
13 µM | O=C(Nc1cc(C(F)(F)F)cc(C(F)(F)F)c1)C(Sc1cccc[n+]1[O-])c1ccccc1 (stereo not drawn) [Compound 20, 2-(2-(3,5-bis(trifluoromethyl)phenylamino)-2-oxo-1-phenylethylthio)pyridine 1-oxide] | –
15 µM | O=C(Nc1cc(Cl)cc(Cl)c1)C(Sc1cccc[n+]1[O-])c1ccccc1Cl (stereo not drawn) [Compound 21, 2-(1-(2-chlorophenyl)-2-(3,5-dichlorophenylamino)-2-oxoethylthio)pyridine 1-oxide] | –
4.1 µM | COc1ccccc1C(Sc1cccc[n+]1[O-])C(=O)Nc1cc(Cl)cc(Cl)c1 (stereo not drawn) [Compound 22, 2-(2-(3,5-dichlorophenylamino)-1-(2-methoxyphenyl)-2-oxoethylthio)pyridine 1-oxide] | –
12 µM | O=C(Nc1cc(Cl)cc(Cl)c1)C(Sc1cccc[n+]1[O-])c1cccc2ccccc12 (stereo not drawn) [Compound 23, 2-(2-(3,5-dichlorophenylamino)-1-(naphthalen-1-yl)-2-oxoethylthio)pyridine 1-oxide] | –
> 100 µM | O=C(Nc1cc(C(F)(F)F)ccc1Cl)C(Sc1cccc[n+]1[O-])c1ccccc1 (stereo not drawn) [Compound 31, 2-(2-(2-chloro-5-(trifluoromethyl)phenylamino)-2-oxo-1-phenylethylthio)pyridine 1-oxide] | –
15 µM | O=C(Nc1ccccc1Cl)C(Sc1cccc[n+]1[O-])c1ccccc1 (stereo not drawn) [Compound 33, 2-(2-(2-chlorophenylamino)-2-oxo-1-phenylethylthio)pyridine 1-oxide] | IC50 (StarD10): 23 µM
